The results in this text go back to paper PMC12557365 (Journal of Medicinal Chemistry, 2025).

A word on the IC50: it is the concentration at which inhibition is half-maximal. The term EC50 denotes the concentration giving half of the maximal effect. As a reminder, the clearance is the volume of plasma or blood freed of the substance per unit of time. Low readings indicate a low capacity for elimination, high ones a high capacity for elimination. As usually defined, the half-life is the time needed for the level to fall by half in the phase considered. A lower half-life goes with rapid decline. What is called Papp A→B is the apparent permeability from the apical to the basolateral side of a cell layer. A high value points to ready permeation. The term bioavailability denotes dose-corrected exposure relative to a reference, in per cent. Low readings indicate little systemic uptake, high ones much systemic uptake.

Data set [1] is described as follows: in vitro. The note with it: male, rat, microsomes.
In a further data set the target is SARS-CoV-2 3CL^pro (Severe acute respiratory syndrome coronavirus 2, UniProt P0DTD1). The data set is described as follows: biochemical. In kind it is biochemical.
In data set [2] the test system is SARS-CoV-2 hCoV-19/Japan/TY/WK-521 strain. In words: microbe, parasite or virus in culture. In kind it is cell-based. Conditions: Severe acute respiratory syndrome coronavirus 2, HEK-293T, read-out: HEK 293T-AT EC50.
Data set [3] is described as follows: in vitro. Conditions: both, human, microsomes.
Data set [4] can be described thus: in vivo. The note with it: male, beagle, dog, iv, 0.1 mg/kg.
The nature of data set [5]: in vivo. Conditions: female, cynomolgus monkey, iv, 0.1 mg/kg.
Data set [6] in a line: in vitro. The note with it: pig, LLC-PK1.
Data set [7] can be described thus: in vivo. The note with it: male, Sprague-Dawley, rat.
Setting [8] is: read-out: SARS-CoV-2 3CL^pro IC50.

Where two headings read alike, the source gives them in different places.

Take `Cc1cncc(-n2c(=O)nc(N3Cc4ccccc4C3)n(Cc3cc(F)c(F)c(F)c3)c2=O)c1` [Compound 1, 6-(Isoindolin-2-yl)-3-(5-methylpyridin-3-yl)-1-(3,4,5-trifluorobenzyl)-1,3,5-triazine-2,4(1H,3H)-dione]: the amount remaining at 0.5 h amounted to 19% in “in vitro [1]” and 49% in “in vitro [3]”. For the same compound, 143 nM corresponded to half-maximal inhibition at SARS-CoV-2 3CL^pro (IC50). Besides, the EC50 in data set [2] was determined as 264 nM.
With `Cc1cncc(-n2c(=O)[nH]c(N3Cc4ccccc4C3)c(Cc3cc(F)c(F)c(F)c3)c2=O)c1` [Compound 2, 6-(Isoindolin-2-yl)-3-(5-methylpyridin-3-yl)-5-(3,4,5-trifluorobenzyl)-pyrimidine-2,4(1H,3H)-dione], the figures for the share remaining at 0.5 h in the data set “in vitro [1]” and in “in vitro [3]” were 36% and 45%, respectively. The same compound returned an IC50 against SARS-CoV-2 3CL^pro of 335 nM. The 50% effective concentration (EC50) in data set [2] worked out at 1490 nM.
Taken in the same sequence, the figures for `Cc1cncc(-n2c(=O)c(Cc3cc(F)c(F)c(F)c3)c(N3Cc4ccccc4C3)n(C)c2=O)c1` [Compound 3, 6-(Isoindolin-2-yl)-1-methyl-3-(5-methylpyridin-3-yl)-5-(3,4,5-trifluorobenzyl)-pyrimidine-2,4(1H,3H)-dione] were 1%, 1%, 179 nM and 191 nM.
Consider `Cc1cncc(-n2c(=O)c(Cc3cc(F)c(F)c(F)c3)c(N3Cc4ccccc4C3)n(CC#N)c2=O)c1` [Compound 4, 2-(6-(Isoindolin-2-yl)-3-(5-methylpyridin-3-yl)-2,4-dioxo-5-(3,4,5-trifluorobenzyl)-3,4-dihydropyrimidin-1(2H)-yl)-acetonitrile], for which the fraction remaining at 0.5 h came to 3% in the data set “in vitro [1]” and 1% in the data set “in vitro [3]”. For the same compound, the IC50 on SARS-CoV-2 3CL^pro (setting [8]) is 0.76 nM. For the same compound, the half-maximal effective concentration (EC50) in data set [2] was determined as 4.94 nM.
Consider `Cc1cncc(-n2c(=O)c(Cc3cc(F)c(F)c(F)c3)c(N3CCCC3)n(CC#N)c2=O)c1` [Compound 5, 2-(3-(5-Methylpyridin-3-yl)-2,4-dioxo-6-(pyrrolidin-1-yl)-5-(3,4,5-trifluorobenzyl)-3,4-dihydropyrimidin-1(2H)-yl)-acetonitrile], for which the fraction remaining at 0.5 h in the data set “in vitro [1]” amounted to 11%; in “in vitro [3]”, 4%. The compound further had an IC50 at SARS-CoV-2 3CL^pro of 11.8 nM. Further, the EC50 in data set [2] came out at 20.4 nM.
In the case of `Cc1cncc(-n2c(=O)c(Cc3cc(F)c(F)c(F)c3)c(N3CCC(C(F)(F)F)CC3)n(CC#N)c2=O)c1` [Compound 6, 2-(3-(5-Methylpyridin-3-yl)-2,4-dioxo-5-(3,4,5-trifluorobenzyl)-6-(4-(trifluoromethyl)-piperidin-1-yl)-3,4-dihydropyrimidin-1(2H)-yl)-acetonitrile], the amount remaining at 0.5 h came to 18% in the data set “in vitro [1]” and 13% in the data set “in vitro [3]”. The IC50 on SARS-CoV-2 3CL^pro is 1.51 nM. Also, in data set [2], the 50% effective concentration (EC50) amounted to 9.41 nM.
Consider `Cc1cncc(-n2c(=O)c(Cc3cc(F)c(F)c(F)c3)c(N3CC4(CCOCC4)C3)n(CC#N)c2=O)c1` [Compound 7, 2-(3-(5-Methylpyridin-3-yl)-2,4-dioxo-6-(7-oxa-2-azaspiro[3.5]-nonan-2-yl)-5-(3,4,5-trifluorobenzyl)-3,4-dihydropyrimidin-1(2H)-yl)-acetonitrile], for which the amount remaining at 0.5 h in “in vitro [1]” is 77%; in the data set “in vitro [3]”, 58%. Also, the 50% inhibitory concentration (IC50) against SARS-CoV-2 3CL^pro was 14 nM. Further, the EC50 in data set [2] amounted to 41.9 nM.
Consider `Cc1cncc(-n2c(=O)c(Cc3cc(F)c(F)c(F)c3)c(N3CC4(C3)CC(F)(F)C4)n(CC#N)c2=O)c1` [Compound 8, 2-(6-(6,6-Difluoro-2-azaspiro[3.3]-heptan-2-yl)-3-(5-methylpyridin-3-yl)-2,4-dioxo-5-(3,4,5-trifluorobenzyl)-3,4-dihydropyrimidin-1(2H)-yl)-acetonitrile], for which the fraction remaining at 0.5 h came to 62% in the data set “in vitro [1]” and 36% in the data set “in vitro [3]”. On SARS-CoV-2 3CL^pro, the IC50 was determined as 5.63 nM. Further, the EC50 in data set [2] is 14.4 nM.
As for `Cc1cncc(-n2c(=O)c(Cc3cc(F)c(F)c(F)c3)c(N3CC4(CCOC4)C3)n(CC#N)c2=O)c1` [Compound 9, 2-(3-(5-Methylpyridin-3-yl)-2,4-dioxo-6-(6-oxa-2-azaspiro[3.4]-octan-2-yl)-5-(3,4,5-trifluorobenzyl)-3,4-dihydropyrimidin-1(2H)-yl)-acetonitrile], the share remaining at 0.5 h stood at 81% in the data set “in vitro [1]” and 58% in “in vitro [3]”. Half-maximal inhibition against SARS-CoV-2 3CL^pro (IC50) required 8.37 nM. In data set [2], the EC50 worked out at 18.4 nM.
On to `N#CCn1c(N2CC3(CCOC3)C2)c(Cc2cc(F)c(F)c(F)c2)c(=O)n(-c2cncc(Cl)c2)c1=O` [Compound 10, 2-(3-(5-Chloropyridin-3-yl)-2,4-dioxo-6-(6-oxa-2-azaspiro[3.4]-octan-2-yl)-5-(3,4,5-trifluorobenzyl)-3,4-dihydropyrimidin-1(2H)-yl)-acetonitrile], for which the figures for the fraction remaining at 0.5 h in “in vitro [1]” and in the data set “in vitro [3]” were 54% and 17%, respectively. This compound registered an IC50 at SARS-CoV-2 3CL^pro of 8.27 nM. Moreover, the EC50 in data set [2] was determined as 25.3 nM.
`Cc1cncc(-n2c(=O)c(Cc3ccc(F)c(F)c3)c(N3CC4(CCOC4)C3)n(CC#N)c2=O)c1` [Compound 11, 2-(5-(3,4-Difluorobenzyl)-3-(5-methylpyridin-3-yl)-2,4-dioxo-6-(6-oxa-2-azaspiro[3.4]-octan-2-yl)-3,4-dihydropyrimidin-1(2H)-yl)-acetonitrile]: the fraction remaining at 0.5 h in the data set “in vitro [1]” amounted to 71%; in the data set “in vitro [3]”, 55%. The same compound returned an IC50 at SARS-CoV-2 3CL^pro of 19.6 nM. For the same compound, in data set [2], the EC50 was 41.8 nM.
In the case of `Cc1cncc(-n2c(=O)c(Cc3ccccc3)c(N3CC4(CCOC4)C3)n(CC#N)c2=O)c1` [Compound 12, 2-(5-Benzyl-3-(5-methylpyridin-3-yl)-2,4-dioxo-6-(6-oxa-2-azaspiro[3.4]-octan-2-yl)-3,4-dihydropyrimidin-1(2H)-yl)-acetonitrile], the fraction remaining at 0.5 h in “in vitro [1]” and in “in vitro [3]” was 70% each time. Besides, half-maximal inhibition against SARS-CoV-2 3CL^pro (IC50) required 99.6 nM. Moreover, in data set [2], the EC50 is 117 nM.
For the compound `N#CCn1c(N2CC3(CCOC3)C2)c(-c2ccccc2)c(=O)n(-c2cncc(Cl)c2)c1=O` [Compound 13, 2-(3-(5-Chloropyridin-3-yl)-2,4-dioxo-5-phenyl-6-(6-oxa-2-azaspiro[3.4]-octan-2-yl)-3,4-dihydropyrimidin-1(2H)-yl)-acetonitrile], the share remaining at 0.5 h came to 58% in “in vitro [1]” and 55% in “in vitro [3]”. The IC50 at SARS-CoV-2 3CL^pro came out at 7.16 nM. The EC50 in data set [2] was found to be 23.1 nM.
Take `N#CCn1c(N2CC3(CCOC3)C2)c(-c2cccc(Cl)c2)c(=O)n(-c2cncc(Cl)c2)c1=O` [Compound 14, 2-(5-(3-Chlorophenyl)-3-(5-chloropyridin-3-yl)-2,4-dioxo-6-(6-oxa-2-azaspiro[3.4]-octan-2-yl)-3,4-dihydropyrimidin-1(2H)-yl)-acetonitrile]: the fraction remaining at 0.5 h in the data set “in vitro [1]” is 33%; in the data set “in vitro [3]”, 49%. Moreover, the “improvement of activity by substituents on the S2 phenyl group” value at SARS-CoV-2 3CL^pro is “more than 10 -fold”. Moreover, the IC50 at SARS-CoV-2 3CL^pro (setting [8]) came to 0.403 nM. Also, in data set [2], the EC50 is 1.57 nM.
Take `N#CCn1c(N2CC3(CCOC3)C2)c(-c2ccc(F)c(Cl)c2)c(=O)n(-c2cncc(Cl)c2)c1=O` [Compound 15, 2-(5-(3-Chloro-4-fluorophenyl)-3-(5-chloropyridin-3-yl)-2,4-dioxo-6-(6-oxa-2-azaspiro[3.4]-octan-2-yl)-3,4-dihydropyrimidin-1(2H)-yl)-acetonitrile]: the fraction remaining at 0.5 h in the data set “in vitro [1]” is 58%. Moreover, at SARS-CoV-2 3CL^pro, the half-maximal inhibitory concentration (IC50) is 0.493 nM and the “improvement of activity by substituents on the S2 phenyl group” value was “more than 10 -fold”. The EC50 in data set [2] was determined as 4.48 nM. In addition, the fraction remaining at 0.5 h in “in vitro [3]” stood at 55%.
For `N#CCn1c(N2CC(F)(F)C2)c(-c2ccc(F)c(Cl)c2)c(=O)n(-c2cncc(Cl)c2)c1=O` [Compound 16, 2-(5-(3-Chloro-4-fluorophenyl)-3-(5-chloropyridin-3-yl)-6-(3,3-difluoroazetidin-1-yl)-2,4-dioxo-3,4-dihydropyrimidin-1(2H)-yl)-acetonitrile], the amount remaining at 0.5 h was found to be 83% in “in vitro [1]” and 89% in “in vitro [3]”. This compound also had an IC50 against SARS-CoV-2 3CL^pro of 2.36 nM. Moreover, the EC50 in data set [2] turned out to be 7.79 nM.
On to `N#CCn1c(N2CC(O)(C(F)(F)F)C2)c(-c2ccc(F)c(Cl)c2)c(=O)n(-c2cncc(Cl)c2)c1=O` [Compound 18, 2-(5-(3-Chloro-4-fluorophenyl)-3-(5-chloropyridin-3-yl)-6-(3-hydroxy-3-(trifluoromethyl)-azetidin-1-yl)-2,4-dioxo-3,4-dihydropyrimidin-1(2H)-yl)-acetonitrile], for which the clearance stood at 4.59 mL/min/kg in the data set “in vivo [4]”, 19.7 mL/min/kg in “in vivo [5]” and 6.69 mL/min/kg in “in vivo [7]” (iv). Besides, the values for the half-life in the data set “in vivo [4]”, in the data set “in vivo [5]” and in the data set “in vivo [7]” (iv) were 8.74 h, 3.48 h and 6.89 h, respectively. The results for the amount remaining at 0.5 h in the data set “in vitro [1]” and in “in vitro [3]” were 99% and 103%, respectively. Moreover, the IC50 on SARS-CoV-2 3CL^pro was 0.391 nM. In “in vitro [6]”, this compound registered a Papp A→B of 1.26 ×10⁻⁶ cm/s. In addition, the EC50 in data set [2] came out at 3.82 nM. This compound also returned a bioavailability in “in vivo [7]” (po, 1 umol/kg) of 38%.
